According to ChEMBL document CHEMBL3616412, “Re-engineering nalidixic acid's chemical scaffold: A step towards the development of novel anti-tubercular and anti-bacterial leads for resistant pathogens” (2015):
Values after ≈ are worked out from the molar mass of the structure shown.

Tests used:
Staphylococcus aureus [1] = assay: Antibacterial activity against Staphylococcus aureus at 10 ug/disk after 24 hrs by agar plate disk diffusion method; type: functional; settings: read-out: DIZ
Escherichia coli [2] = assay: Antibacterial activity against Escherichia coli at 10 ug/disk after 24 hrs by agar plate disk diffusion method; type: functional; settings: read-out: DIZ
Proteus vulgaris [3] = assay: Antibacterial activity against Proteus vulgaris at 10 ug/disk after 24 hrs by agar plate disk diffusion method; type: functional; settings: read-out: DIZ
Pseudomonas aeruginosa [4] = assay: Antibacterial activity against Pseudomonas aeruginosa at 10 ug/disk after 24 hrs by agar plate disk diffusion method; type: functional; settings: read-out: DIZ
Salmonella typhi [5] = assay: Antibacterial activity against Salmonella typhi at 10 ug/disk after 24 hrs by agar plate disk diffusion method; type: functional, Salmonella enterica subsp. enterica serovar Typhi; settings: Salmonella enterica, read-out: DIZ
Salmonella paratyphi [6] = assay: Antibacterial activity against Salmonella paratyphi at 10 ug/disk after 24 hrs by agar plate disk diffusion method; type: functional, Salmonella enterica subsp. enterica serovar Paratyphi A; settings: Salmonella enterica, read-out: DIZ
[7] = test system: Mycobacterium tuberculosis; assay: Antitubercular activity against Mycobacterium tuberculosis H37Rv ATCC 27294 after 5 days by micro alamar blue assay; type: functional
Staphylococcus aureus [8] = assay: Antibacterial activity against Staphylococcus aureus after 24 hrs by agar dilution method; type: functional
Staphylococcus aureus [9] = assay: Antibacterial activity against Staphylococcus aureus after 5 days by microdilution method; type: functional; settings: 120 h
Escherichia coli [10] = assay: Antibacterial activity against Escherichia coli after 24 hrs by agar dilution method; type: functional
Escherichia coli [11] = assay: Antibacterial activity against Escherichia coli after 5 days by microdilution method; type: functional; settings: 120 h
Proteus vulgaris [12] = assay: Antibacterial activity against Proteus vulgaris after 24 hrs by agar dilution method; type: functional
Proteus vulgaris [13] = assay: Antibacterial activity against Proteus vulgaris after 5 days by microdilution method; type: functional; settings: 120 h
Pseudomonas aeruginosa [14] = assay: Antibacterial activity against Pseudomonas aeruginosa after 24 hrs by agar dilution method; type: functional
Pseudomonas aeruginosa [15] = assay: Antibacterial activity against Pseudomonas aeruginosa after 5 days by microdilution method; type: functional; settings: 120 h
Salmonella typhi [16] = assay: Antibacterial activity against Salmonella typhi after 24 hrs by agar dilution method; type: functional, Salmonella enterica subsp. enterica serovar Typhi; settings: Salmonella enterica
Salmonella typhi [17] = assay: Antibacterial activity against Salmonella typhi after 5 days by microdilution method; type: functional, Salmonella enterica subsp. enterica serovar Typhi; settings: Salmonella enterica, 120 h
Salmonella paratyphi [18] = assay: Antibacterial activity against Salmonella paratyphi after 24 hrs by agar dilution method; type: functional, Salmonella enterica subsp. enterica serovar Paratyphi A; settings: Salmonella enterica
Salmonella paratyphi [19] = assay: Antibacterial activity against Salmonella paratyphi after 5 days by microdilution method; type: functional, Salmonella enterica subsp. enterica serovar Paratyphi A; settings: Salmonella enterica, 120 h

Structure (SMILES)	zone of inhibition at 10 µg/disc (Staphylococcus aureus [1]) [mm]	zone of inhibition at 10 µg/disc (Escherichia coli [2]) [mm]	zone of inhibition at 10 µg/disc (Proteus vulgaris [3]) [mm]	zone of inhibition at 10 µg/disc (Pseudomonas aeruginosa [4]) [mm]	zone of inhibition at 10 µg/disc (Salmonella typhi [5]) [mm]	zone of inhibition at 10 µg/disc (Salmonella paratyphi [6]) [mm]	inhibition (INH) [7] [%]	MIC (Staphylococcus aureus [8]) [µg/mL]	MIC (Staphylococcus aureus [9]) [µg/mL]	MIC (Escherichia coli [10]) [µg/mL]	MIC (Escherichia coli [11]) [µg/mL]	MIC (Proteus vulgaris [12]) [µg/mL]	MIC (Proteus vulgaris [13]) [µg/mL]	MIC (Pseudomonas aeruginosa [14]) [µg/mL]	MIC (Pseudomonas aeruginosa [15]) [µg/mL]	MIC (Salmonella typhi [16]) [µg/mL]	MIC (Salmonella typhi [17]) [µg/mL]	MIC (Salmonella paratyphi [18]) [µg/mL]	MIC (Salmonella paratyphi [19]) [µg/mL]
CCOC(=O)c1cn(CC)c2nc(C)ccc2c1=O	24	22	23	17	21	19	78	0.25 (≈ 0.96 µM)	0.25 (≈ 0.96 µM)	0.5 (≈ 1.92 µM)	0.5 (≈ 1.92 µM)	0.5 (≈ 1.92 µM)	0.5 (≈ 1.92 µM)	2 (≈ 7.68 µM)	2 (≈ 7.68 µM)	1 (≈ 3.84 µM)	1 (≈ 3.84 µM)	1 (≈ 3.84 µM)	1 (≈ 3.84 µM)
CCn1cc(C(=O)NNC(N)=S)c(=O)c2ccc(C)nc21	28	29	30	26	23	23	84	0.12 (≈ 0.393 µM)	0.12 (≈ 0.393 µM)	0.12 (≈ 0.393 µM)	0.12 (≈ 0.393 µM)	0.12 (≈ 0.393 µM)	0.12 (≈ 0.393 µM)	0.25 (≈ 0.819 µM)	0.25 (≈ 0.819 µM)	0.5 (≈ 1.64 µM)	0.5 (≈ 1.64 µM)	0.5 (≈ 1.64 µM)	0.5 (≈ 1.64 µM)
CCn1cc(C(=O)NN)c(=O)c2ccc(C)nc21	28	39	34	39	28	20	80	0.12 (≈ 0.487 µM)	0.12 (≈ 0.487 µM)	0.06 (≈ 0.244 µM)	0.06 (≈ 0.244 µM)	0.06 (≈ 0.244 µM)	0.06 (≈ 0.244 µM)	0.25 (≈ 1.02 µM)	0.25 (≈ 1.02 µM)	0.5 (≈ 2.03 µM)	0.5 (≈ 2.03 µM)	0.5 (≈ 2.03 µM)	0.5 (≈ 2.03 µM)
CCn1cc(C(=O)NNC(=S)/N=c2\[nH]c3ccccc3[nH]c2=O)c(=O)c2ccc(C)nc21	20	19	18	19	22	18	93	1 (≈ 2.22 µM)	1 (≈ 2.22 µM)	2 (≈ 4.45 µM)	2 (≈ 4.45 µM)	2 (≈ 4.45 µM)	2 (≈ 4.45 µM)	> 4	> 4	2 (≈ 4.45 µM)	2 (≈ 4.45 µM)	2 (≈ 4.45 µM)	2 (≈ 4.45 µM)
CCn1cc(C(=O)N/N=c2\[nH]c3ccccc3[nH]c2=O)c(=O)c2ccc(C)nc21	21	22	20	17	14	15	91	1 (≈ 2.56 µM)	1 (≈ 2.56 µM)	2 (≈ 5.12 µM)	2 (≈ 5.12 µM)	2 (≈ 5.12 µM)	2 (≈ 5.12 µM)	> 4	> 4	> 4	> 4	> 4	> 4
CCn1cc(-c2n[nH]c(=S)n2-c2nc3ccccc3[nH]c2=O)c(=O)c2ccc(C)nc21	30	28	30	29	22	23	77	0.06 (≈ 0.139 µM)	0.06 (≈ 0.139 µM)	0.06 (≈ 0.139 µM)	0.06 (≈ 0.139 µM)	0.5 (≈ 1.16 µM)	0.5 (≈ 1.16 µM)	1 (≈ 2.32 µM)	1 (≈ 2.32 µM)	1 (≈ 2.32 µM)	1 (≈ 2.32 µM)	1 (≈ 2.32 µM)	1 (≈ 2.32 µM)
CCn1cc(-c2nn(-c3nc4ccccc4[nH]c3=O)c(=S)o2)c(=O)c2ccc(C)nc21	32	25	26	23	23	22	75	0.06 (≈ 0.139 µM)	0.06 (≈ 0.139 µM)	0.5 (≈ 1.16 µM)	0.5 (≈ 1.16 µM)	1 (≈ 2.31 µM)	1 (≈ 2.31 µM)	1 (≈ 2.31 µM)	1 (≈ 2.31 µM)	1 (≈ 2.31 µM)	1 (≈ 2.31 µM)	1 (≈ 2.31 µM)	1 (≈ 2.31 µM)
CC1(C)S[C@@H]2[C@H](NC(=O)[C@H](N)c3ccc(O)cc3)C(=O)N2[C@H]1C(=O)O [AMOXICILLIN]	32	25	24	21	21	22	–	0.5 (≈ 1.37 µM)	0.5 (≈ 1.37 µM)	0.25 (≈ 0.684 µM)	0.25 (≈ 0.684 µM)	1 (≈ 2.74 µM)	1 (≈ 2.74 µM)	2 (≈ 5.47 µM)	2 (≈ 5.47 µM)	0.5 (≈ 1.37 µM)	0.5 (≈ 1.37 µM)	2 (≈ 5.47 µM)	2 (≈ 5.47 µM)
O=C(O)c1cn(C2CC2)c2cc(N3CCNCC3)c(F)cc2c1=O [CIPROFLOXACIN]	30	28	33	23	26	25	–	0.12 (≈ 0.362 µM)	0.12 (≈ 0.362 µM)	–	–	0.25 (≈ 0.754 µM)	0.25 (≈ 0.754 µM)	–	–	0.12 (≈ 0.362 µM)	0.12 (≈ 0.362 µM)	0.25 (≈ 0.754 µM)	0.25 (≈ 0.754 µM)
NNC(=O)c1ccncc1 [ISONIAZID]	–	–	–	–	–	–	100	–	–	–	–	–	–	–	–	–	–	–	–
CCn1cc(C(=O)O)c(=O)c2ccc(C)nc21 [NALIDIXIC ACID]	27	26	25	22	25	24	63	0.12 (≈ 0.517 µM)	0.12 (≈ 0.517 µM)	0.25 (≈ 1.08 µM)	0.25 (≈ 1.08 µM)	0.25 (≈ 1.08 µM)	0.25 (≈ 1.08 µM)	1 (≈ 4.31 µM)	1 (≈ 4.31 µM)	1 (≈ 4.31 µM)	1 (≈ 4.31 µM)	1 (≈ 4.31 µM)	1 (≈ 4.31 µM)
CO[C@H]1/C=C/O[C@@]2(C)Oc3c(C)c(O)c4c(O)c(c(/C=N/N5CCN(C)CC5)c(O)c4c3C2=O)NC(=O)/C(C)=C\C=C\[C@H](C)[C@H](O)[C@@H](C)[C@@H](O)[C@@H](C)[C@H](OC(C)=O)[C@@H]1C [RIFAMPIN]	–	–	–	–	–	–	98	–	–	–	–	–	–	–	–	–	–	–	–
